“Also recorded” adds a separate entry of the source. Where two headings read alike, the source gives them in different places.
Experiments:
[1] = Oral bioavailability, AUC, half-life, plasma, brain and liver concentration in mice at 2 mg/kg; assay type: in vivo; conditions: for AUC(0-t) / half-life / bioavailability: plasma; for bioavailability: read-out: Absolute bioavailability (oral); for Plasma concentration 4 and 6 hours after oral administration: time point not stated
Experimental: HZ10126 and other test compounds were each administered to mice at a dose of 2 mg/kg, and the bioavailability, AUC, plasma concentration, level of brain penetration (i.e. brain concentration) and liver concentration after the oral administration were measured and shown in Table 1. The measurement methods are well known to a person skilled in the art.

[2] = molecular target: A2A receptor (Homo sapiens, UniProt P29274); assay: biochemical
[3] = test system: B16-F10 cells; assay: Mouse melanoma lung metastasis model, oral HZ10126; assay type: in vivo, mice
Experimental: 4.1 Establishment of a Mouse Melanoma Model (6×10^4 Cells/Mouse)
5-week old C58BL/6N mice, half male and half female, were divided into 4 groups, with 10 mice per group. B16-F10 cells were digested and centrifuged, re-suspended in physiological saline and washed once. The cells were counted and adjusted to a cell density of 30×10^4 cells/ml in a volume of 12 ml. 200 μl of the cell suspension was injected into the tail vain of each mouse (Day 1), and the body weight of mice was recorded once every 3 days. On Day 18, the mice were all sacrificed, lungs were removed, and metastasis tumors were counted and weighed. Livers, kidneys and spleens were taken for HE staining to evaluate the toxicity of the drug. The lungs were subjected to immunohistochemistry and stained for CD11b, F4/80 and CD8.
Test drug: HZ10126. 2 mg HZ10126 was dissolved in 80 μl DMSO first, and the resultant solution, while being vortexed, was added dropwise to 10 ml 50% PEG-400 to prepare a 0.2 mg/ml solution.
For the test groups, the HZ10126 solution was intragastrically administered at a dose of 2 mg HZ10126/kg/day. For the control group, an equivalent volume of 50% PGE-400 was administered. From the day of injection of cells, the drug was administered once a day for 18 consecutive days.

[4] = reference [2]; cited from earlier work
[5] = cited from earlier work
[6] = 2 mg/kg oral, 1 h post administration
[7] = 2 mg/kg, 4 h after oral administration
[8] = 2 mg/kg, 6 h after oral administration

AUC(0-t) ([1]; mouse, 2 mg/kg, oral) [ng·h/mL] | half-life ([1]; mouse, 2 mg/kg, oral) [h] | bioavailability ([1]; mouse, 2 mg/kg, oral) [%] | IC50 [2] [nM] | Plasma concentration 4 and 6 hours after oral administration ([1]; 2 mg/kg) | Structure (SMILES) | further results
371 ± 62.9 | 4 to 5 | 13.4 | 1.8 | – | Nc1nc2c(cnn2CCc2ccc(C(=O)O)cc2)c2nc(-c3ccco3)nn12 [HZ10126] | Liver concentration/Plasma concentration [1, 6]: 7; Liver concentration/Plasma concentration ([1]; 2 mg/kg oral, 6 h post administration): 24; Plasma concentration after oral administration [1, 7]: 52.0 ± 7.03 ng/mL; Plasma concentration after oral administration [1, 8]: 28.9 ± 9.79 ng/mL; Brain penetration ([1]; 2 mg/kg, oral): no detectable brain concentration; also recorded: No penetration; Kp at 1 h ([1]; mouse, liver/plasma, 2 mg/kg oral, 1 h post administration): 7; Kp at 6 h ([1]; mouse, liver/plasma, 2 mg/kg oral, 6 h post administration): 24; Metastases on the lungs versus control group ([3]; Day 18, 2 mg/kg/day intragastric, once a day for 18 days): obviously less than those in the control group; Inhibitory effect on tumor / tumor metastasis ([3]; mice, oral 2 mg/kg/day): excellent effect of suppressing tumor metastasis; also recorded: excellent inhibitory effect
93.9 ± 40.8 | – | – | 1.2 | 4.50 ± 2.53 ng/mL | Nc1nc2c(cnn2CCN2CCN(c3ccc(C(=O)O)cc3)CC2)c2nc(-c3ccco3)nn12 [HZ10168] | –
233 ± 73.5 | 3.03 | – | – | – | CCOC(=O)c1ccc(CCn2ncc3c2nc(N)n2nc(-c4ccco4)nc32)cc1 [HZ10328] | Plasma concentration after oral administration [1, 7]: 4 h: 24.0 ± 8.02 ng/ml

The remaining lines, values behind:

Structure (SMILES) | AUC(0-t) ([1]; mouse, 2 mg/kg, oral) [ng·h/mL] | half-life ([1]; mouse, 2 mg/kg, oral) [h] | bioavailability ([1]; mouse, 2 mg/kg, oral) [%] | IC50 [2] [nM] | Plasma concentration 4 and 6 hours after oral administration ([1]; 2 mg/kg) | further results
Nc1nc2c(cnn2CCc2ccc(OCC(=O)O)cc2)c2nc(-c3ccco3)nn12 [HZ10136] | 7.42 ± 5.66 | < 0.5 | 0.73 | 1.1 | 2.57 ± 0.10 ng/mL | Liver concentration/Plasma concentration [1, 6]: 1 h post administration: 2.3; Brain penetration ([1]; 2 mg/kg, oral): No penetration
Nc1nc2c(cnn2CCc2ccc(CO)cc2)c2nc(-c3ccco3)nn12 [HZ10330] | – | – | 0 | – | Not detected from 1 h after oral administration | Absolute bioavailability (oral) ([1]; 2 mg/kg, oral): does not lead to detectable bioavailability
COCCOc1ccc(N2CCN(CCn3ncc4c3nc(N)n3nc(-c5ccco5)nc43)CC2)cc1 [Preladenant, reference compound] | 285 ± 113 | – | – | 2.5 | – | Plasma concentration after oral administration [1, 8]: 6 h: 6.20 ± 7.27 ng/ml; half-life [4]: 2.1 h
Nc1nc2c(cnn2CCc2ccccc2)c2nc(-c3ccco3)nn12 [SCH 58261] | – | – | ~0 | – | No significant meaningful concentration | half-life ([5]; after intravenous injection, reference [1]): *26.7 min; Oral bioavailability ([5]; after oral administration): barely any oral bioavailability; also recorded: barely has any bioavailability; Brain concentration ([5]; intraperitoneal injection): very low brain concentration; Plasma concentration ([5]; intraperitoneal injection): relatively high plasma concentration; Half-life in the blood ([5]; rats, after intravenous injection): 0.445 h

Source: patent US11440916B2, “Selective A2A receptor antagonist” (InxMed (Nanjing) Co., Ltd., priority 2018, dated 2022)
